Laboratory results: US12622917B2, “High-activity Wnt pathway inhibitor compound” (ADLAI NORTYE BIOPHARMA CO., LTD., priority 2020, dated 2026)

Assays:
Type in all cases: cell-based
[1] = system: Colo205-LUC-TCF/LEF M1 reporter cell line (Wnt pathway); assay: Colo205-LUC-TCF/LEF M1 reporter gene (luciferase) inhibition; settings: 4 hours incubation, luciferase readout
Excerpt: Colo205 cell line (Cell Bank of Chinese Academy of Sciences, Cat #TCHu102) was purchased from the Cell Bank of Chinese Academy of Sciences. After expansion and subculture, in the exponential growth phase of the cells, transfection with lipo3000 liposome transfection with TCF/LEF transcription factors Driven luciferase reporter plasmid (Promega). […] The plasmid carries a resistance gene for resistance screening. Transfection was carried out in 10 cm culture dishes using conventional complete medium without resistance. After 2 days, the medium with resistance was replaced, and the culture was continued. After that, the resistant medium was replaced every 2 days, and the suspended cells were discarded. The original medium was centrifuged to remove cells and debris and retained as an adaptive medium. When the cells covered the culture dish, the cells were digested, counted, and passaged in a 96-well plate, so that the average number of cells contained in each well was 1.5/well, and the adaptive medium was used for passage. The rest of the cells were frozen. After subculture, culture for 4 hours to allow the cells to adhere to the wall, and then observe the number of cells in each well under a microscope. Wells with only 1 cell per well were labeled as monoclonal wells. Afterwards, normal culture was performed, and the culture medium was replaced every 2 days, and observed. There are holes where the monoclonal cells continue to grow in the early stage, and they are labeled twice, and can be replaced with normal resistant medium. When a monoclonal well was overgrown with a 96-well plate, it is digested and passaged to a 24-well culture plate. After the 24-well plate is overgrown, it is passaged to a 96-well plate and a 6-well plate. The cells in a 96-well plate are at least 6 wells, of which 3 wells were added with known Wnt inhibitors, and the other 3 wells were not treated. After 24 hours, the cells in the 96-well plate were added with a fluorescence detection reagent to detect the fluorescence intensity. Cell lines with fluorescent expression when not treated and decreased fluorescent light after inhibition were selected and further cultured. The Colo205-LUC-TCF/LEF-M1 cell line is one of the cell lines screened above. Its growth curve, cell shape, and cell growth state are similar to those of the original Colo205 cells, and the ratio of the fluorescent signals of the inhibitor-treated and untreated cells is the largest among all cell lines, and the ratio can reach 4-5 times when inhibited at 4 hours, which was completely suitable for the screening of Wnt inhibitors in the later stage.
The Colo205-LUC-TCF/LEF M1 cell line is a reporter tool cell stably transfected with the pGL4.49-LUC2-TCF/LEF vector. The β-catenin Wnt pathway is continuously activated. After adding the inhibitor, the Wnt pathway is inhibited. The expression of firefly luciferase regulated by the[…] cis-element decreased, and after adding the detection substrate, the detected light signal decreased accordingly, so as to detect the inhibitory effect of the compound.
To a 96-well cell culture plate, add 100 uL of the compound with a maximum concentration of 20 uM to each well, and make a 3-fold serial dilution of the compound concentration. Then 10,000 colo205 cells stably transfected with the reporter gene and 100 uL medium were inoculated into each well, and corresponding positive and negative control wells were made at the same time. Put the cells in a 5% CO2 incubator and incubate at 37° C. for 4 hours. After 4 hours, remove the culture medium, add 100 uL of reagent (Promega) containing the corresponding firefly luciferase substrate to each well, and measure the activity of luciferase reporter gene. Luminescence intensity was read with SpectraMax in full wavelength mode. […]

Colo205 = assay: Proliferation inhibition, Wnt mutant cell line Colo205; settings: Homo sapiens, COLO 205; Colo205, Wnt pathway-dependent, 96 hours; read-out: Antiproliferative IC50 Colo205
Excerpt: (§1) The cell lines used in the experiment are Colo205 and DU4475 cell lines whose Wnt pathway is continuously activated and whose proliferation is Wnt pathway-dependent; while the BELA and RKO cell lines, whose Wnt pathway is not activated under normal circumstances and the proliferation is independent of Wnt pathway, as control cell lines. It is Judged that the inhibitory effect of the compound of the present invention on Wnt-dependent proliferation is not caused by other non-specific toxicity.
(§2) Treat the Colo205, Du4475, HELA and RKO cell lines cultured in their respective mediums in the logarithmic growth phase, collect the cells and prepare a uniform cell suspension of known concentration, and then add it to the 96-well cell culture plate Cell suspension, so that each well contains 1000 cells. Put it into a 5% CO2 incubator and incubate at 37° C. for 20-24 h. On the second day, the fully dissolved, 3-fold serially diluted compound was added to each cell culture well, so that the final maximum concentration in the cell culture well was 20 uM, and the culture was continued for 96 hours. In this test, Promega's cell viability detection test is used for detection. The more the cells proliferate, the stronger the final signal intensity will be. The detection instrument is SpectraMax, full wavelength mode. The wells only added with DMSO were used as positive control wells, and the wells that were not inoculated with cells were used as negative control wells. […] The IC50 value of cell proliferation inhibition was used to evaluate the inhibitory effect of the compound on the Wnt pathway and the toxic effect on normal cells (Table 2).

RKO = assay: Proliferation inhibition, non-Wnt mutant control cell line RKO; settings: Homo sapiens, Wnt-independent control cell line, 96 hours, read-out: Antiproliferative IC50 RKO
Excerpt: as §1, §2

IC50 [1] [nM]	IC50 (Colo205) [nM]	Compound	IC50 (RKO) [nM]
30	17	CN1c2nc(NCc3ccc(Oc4cnc(C(F)(F)F)nc4)nc3)nc3c2N(CCC3)C(=O)[C@@H]1C1CCOCC1 [218 (W339)]	> 10000
–	60	COCCC1C(=O)N2CCCc3nc(NCc4ccc(Oc5cnc(C(F)(F)F)nc5)nc4)nc(c32)N1C (stereo not drawn) [210 (W371)]	> 10000
83	–	C[C@H]1C(=O)N2CCCc3nc(NCc4cnn(Cc5ccc(C(F)(F)F)nc5)c4)nc(c32)N1C [Example 1, (S)-4,5-dimethyl-2-(((1-((6-(trifluoromethyl)pyridine-3-yl)methyl)-1H-pyrazol-4-yl)methyl)amino)-4,5,9,10-tetrahydro-6H,8H-pyrido[3,2,1-de]pteridin-6-one]	–
–	57	CN1c2nc(NCc3ccc(Oc4cnc(C(F)(F)F)nc4)nc3)nc3c2N(CCC3)C(=O)[C@]12CCOC2 [225 (W407)]	> 10000
67	–	CN1CC2(CC2)Cn2ccc3nc(NCc4cnn(Cc5ccc(C(F)(F)F)nc5)c4)nc1c32 [76 (W83)]	–
16.6	11.1	C[C@H](O)[C@@]1(C)C(=O)N2CCCc3nc(NCc4ccc(Oc5cnc(C(F)(F)F)nc5)nc4)nc(c32)N1C [240 (W428)]	> 10000
41	–	C[C@H]1Cn2cc(F)c3nc(NCc4cnn(Cc5ccc(F)cc5)c4)nc(c32)N1C [64 (W23)]	–
9.3	11.5	[2H]C([2H])([2H])n1nc(C(F)(F)F)cc1Oc1ccc(CNc2nc3c4c(n2)N(C)[C@@H](CO)C(=O)N4CCC3)cn1 [241 (W431)]	> 10000
43	23	COCC[C@H]1C(=O)N2CCCc3nc(NCc4ccc(Oc5cnc(C(F)(F)F)nc5)nc4)nc(c32)N1C [211 (W390)]	> 10000
59	35	CN1c2nc(NCc3ccc(Oc4cc(C(F)(F)F)nn4C)nc3)nc3c2N(CCC3)C(=O)[C@]1(C)CO [223 (W403)]	> 10000
–	138	C[C@H]1C(=O)N2CCCc3nc(NCc4ccc(Oc5ccc(C6CC6)nc5)nc4)nc(c32)N1C [137 (W335), (S)-2-(((6-((6-cyclopropylpyridin-3-yl)oxo)pyridin-3-yl)methyl)amino)-4,5-dimethyl-4,5,9,10-tetrahydro-6H,8H-pyrido[3,2,1-de]pteridin-6-one]	> 10000
–	57	CN1c2nc(NCc3ccc(Oc4cnc(C(F)(F)F)nc4)nc3)nc3c2N(CCC3)C(=O)C12CCOCC2 [217 (W359)]	> 10000
–	43	[2H]C([2H])([2H])N1c2nc(NCc3ccc(Oc4cnc(C(F)(F)F)nc4)nc3)nc3c2N(CCC3)C(=O)[C@]1(C)CO [221 (W399)]	> 10000
–	61	CN1c2nc(NCc3ccc(Oc4cc(C(F)(F)F)nn4C)nc3)nc3c2N(CCC3)C(=O)[C@@H]1CO [222 (W402)]	> 10000
–	53	COCC[C@@H]1C(=O)N2CCCc3nc(NCc4ccc(Oc5ccc(C(F)(F)F)nc5)nc4)nc(c32)N1C [215 (W391)]	> 10000
–	49	CN1c2nc(NCc3ccc(Oc4cnc(C(F)(F)F)nc4)nc3)nc3c2N(CCC3)C(=O)[C@]1(C)CO [140 (W376), (S)-5-(hydroxymethyl)-4,5-dimethyl-2-(((6-((2-(trifluoromethyl)pyrimidin-5-yl)oxo)pyridine-3-Base)methyl)amino)-4,5,9,10-tetrahydro-6H,8H-pyrido[3,2,1-de]pteridin-6-one]	> 10000

IC50 [1] [nM]	IC50 (Colo205) [nM]	Compound	IC50 (RKO) [nM]
31	10	CN1c2nc(NCc3ccc(Oc4ccc(C(F)(F)F)nc4)nc3)nc3c2N(CCC3)C(=O)[C@@H]1C1CCOCC1 [219 (W338)]	> 10000
–	39	CN1c2nc(NCc3ccc(Oc4ccc(C(F)(F)F)nc4)nc3)nc3c2N(CCC3)C(=O)C12CCOCC2 [216 (W352)]	> 10000
28	–	CN1c2nc(NCc3ccc(Oc4cnc(C(F)(F)F)nc4)nc3)nc3c2N(CCC3)C(=O)C12CC2 [175 (W327)]	–
–	63	CN1c2nc(NCc3ccc(Oc4cnc(C(F)(F)F)nc4)nc3)nc3c2N(CCC3)C(=O)[C@@]12CCOC2 [224 (W406)]	> 10000
–	30	CN1c2nc(NCc3ccc(Oc4ccc(C(F)(F)F)nc4)nc3)nc3c2N(CCC3)C(=O)[C@]12CCOC2 [209 (W405)]	> 10000
–	84	CN1c2nc(NCc3ccc(Oc4ccc(C(F)(F)F)nc4)nc3)nc3c2N(CCC3)C(=O)C12CCOC2 (stereo not drawn) [207 (W357)]	> 10000
93	–	C[C@H]1CN(C)c2nc(NCc3ccc(CCC(F)(F)F)nc3)nc3ccn1c23 [Example 20, (S)-4,6-dimethyl-N-((6-(3,3,3-trifluoropropyl)pyridin-3-yl)methyl)-5,6-dihydro-4H-pyrrole And[3,2,1-de]pteridin-2-amine]	–
21	–	FC1(F)C[C@H]2Cn3ccc4nc(NCc5cnn(Cc6ccc(C(F)(F)F)nc6)c5)nc(c43)N2C1 [69 (W50)]	–
11	–	C[C@H]1Cn2ccc3nc(NCc4cnn(CCc5ccc(F)cc5)c4)nc(c32)N1C [66 (W43)]	–
58	35	CN1c2nc(NCc3ccc(Oc4ccc(C(F)(F)F)nc4)nc3)nc3c2N(CCC3)C(=O)[C@]1(C)CO [133 (W377), (S)-5-(hydroxymethyl)-4,5-dimethyl-2-(((6-((6-(trifluoromethyl)pyridin-3-yl)oxo)pyridine-3-yl)methyl)amino)-4,5,9,10-tetrahydro-6H,8H-pyrido[3,2,1-de]pteridin-6-one]	> 10000
–	48	[2H]C([2H])([2H])N1c2nc(NCc3ccc(Oc4ccc(C(F)(F)F)nc4)nc3)nc3c2N(CCC3)C(=O)[C@]1(C)CO [220 (W398)]	> 10000
42	25	[2H]C([2H])([2H])OC[C@H]1C(=O)N2CCCc3nc(NCc4ccc(Oc5cnc(C(F)(F)F)nc5)nc4)nc(c32)N1C([2H])([2H])[2H] [132 (W383), (S)-5-((methoxy-d3)methyl)-4-(methyl-d3)-2-(((6-((2-(trifluoromethyl)pyrimidin-5-yl)oxo)pyridin-3-yl)methyl)amino)-4,5,9,10-tetrahydro-6H,8H-pyrido[3,2,1-de]pteridin-6-one]	> 10000
36	28.3	C[C@H](O)[C@@]1(C)C(=O)N2CCCc3nc(NCc4ccc(Oc5ccc(C(F)(F)F)nc5)nc4)nc(c32)N1C [239 (W427)]	> 10000
24	–	[2H]C([2H])([2H])N1c2nc(NCc3cnn(Cc4ccc(C(F)(F)F)nc4)c3)nc3ccn(c23)C[C@@H]1C [73 (W85)]	–
–	52	CCn1nc(C(F)(F)F)c(C2CC2)c1Oc1ccc(CNc2nc3c4c(n2)N(C)[C@@](C)(CO)C(=O)N4CCC3)cn1 [233 (W419)]	> 10000
